# Entries after “also recorded” stand apart in the source; their conditions may differ. Like-named read-outs stand apart in the source and are kept apart here.
# Experiments:
# [1] = system: mitochondria polarization; parameters: method as in PMID 15566294; details: up to a 10 µM concentration; cited from earlier work
# Jurkat cells = system: Jurkat cells; parameters: method as in PMID 15566294; details: read-out: DC50 value, apoptosis of Jurkat cells; cited from earlier work
# LNCaP cell line = system: LNCaP cell line; parameters: method as in PMID 29246854; details: 48 h of exposure to 10 μM; cited from earlier work
# [2] = system: MDA-MB-231 (breast carcinoma); assay: MTT-based viability assay, MDA-MB-231; assay type: cell-based, human; details: for IC50: Homo sapiens, read-out: IC50 [µM] MDA-MB-231
# Protocol: (§1) 3. The cytotoxicity of the newly obtained inhibitors, i.e., 1, 2, and 4 was tested towards four cell lines, i.e., CCRF-CEM (acute lymphoblastic leukemia ALL), MCF-7 (breast carcinoma), MDA-MB-231 (triple negative breast carcinoma), and Vero (Cercopithecus aethiops kidney).
# (§2) The CCRF-CEM (acute lymphoblastic leukemia, ALL) and MDA-MB-231 (triple-negative breast adenocarcinoma) cell lines were obtained from the European Collection of Authenticated Cell Cultures (ECACC), while the MCF-7 (hormone-dependent breast adenocarcinoma) and Vero (Cercopithecus aethiops kidney) cell lines were purchased from the American Type Culture Collection (ATCC, Manassas, VA, USA). CCRF-CEM cells were maintained in RPMI-1640 medium, whereas MCF-7 and MDA-MB-231 cells were cultured in DMEM (Sigma-Aldrich Chemical Company, St. Louis, MO, USA). Vero cells were cultured in minimum essential medium eagle (MEM; Sigma-Aldrich). All media were supplemented with 10% fetal bovine serum (FBS), 2 mM L-glutamine, and antibiotics (100 U/mL penicillin and 100 µg/mL streptomycin) (Sigma-Aldrich). Cells were grown in 75-cm^2 culture flasks (Googlab Scientific, Rakocin, Poland) in a humidified atmosphere containing 5% CO2 at 37 °C. All experiments were performed using exponentially growing cultures. Stock solutions of the test compounds were prepared in DMSO and stored at –80 °C for up to one month.
# (§3) Following incubation with the tested compounds, the MTT assay was carried out as previously described. Optical density was measured at 570 nm using a BioTek microplate reader (Winooski, VT, USA). All measurements were performed in at least three independent biological replicates.
# MCF-7 (breast carcinoma) = assay: MTT-based viability assay, MCF-7; assay type: cell-based, human; details: for IC50: Homo sapiens, read-out: IC50 [µM] MCF-7; for SI (selectivity index) MCF-7: IC50 for Vero/IC50 for cancer cells
# Protocol: as §1, §2, §3
# CCRF-CEM cells [3] = assay: annexin V/propidium iodide apoptosis, flow cytometry, CCRF-CEM; assay type: cell-based, human; details: 48 h, annexin V binding
# Protocol: The results obtained for CCRF-CEM and MCF-7 are shown in Figure 3 and Figure 4, respectively. […] 1, 79.6% of cells were apoptotic.
# CCRF-CEM cells were seeded in 24-well plates at a density of 2 × 10^5 cells/mL. The cells were treated with the tested compounds at concentrations of 8, 16, and 32 µM, followed by incubation for 48 h. After treatment, the cells were harvested and processed according to the previously described protocol. Flow cytometric measurements were conducted within 1 h of cell labeling. Viable, necrotic, early apoptotic, and late apoptotic cells were identified using a BD Accuri C6 Plus flow cytometer and analyzed with BD Accuri C6 Plus software, version 1.0.34.1 (BD Biosciences, San Jose, CA, USA).
# [4] = system: Vero (Cercopithecus aethiops kidney); assay: MTT-based viability assay, Vero; assay type: cell-based; details: Chlorocebus sabaeus, 48 h, read-out: IC50 [µM] Vero
# Protocol: as §1, §2, §3
# [5] = system: CK2 in CCRF-CEM cells (Ser529 in NF-κB p65); assay: PhosFlow analysis of NF-κB p65 Ser529 phosphorylation, CCRF-CEM; assay type: cell-based, human; details: 16 µM, 24 h
# Protocol: CCRF-CEM cells were prepared following the BD PhosFlow™ Protocol for Human PBMCs using NF-κB p65 (pS529)-PE (#558423), BD PhosFlow™ Perm Buffer III (#558050), Cytofix Fixation Buffer (#554655), and Stain Buffer FBS (#554656), all obtained from Becton Dickinson. Flow cytometric analysis was performed using a BD Accuri C6 Plus cytometer (Becton Dickinson) according to the manufacturer’s instructions.
# [6] = system: CCRF-CEM (acute lymphoblastic leukemia); assay: MTT-based viability assay, CCRF-CEM; assay type: cell-based, human; details: for IC50: Homo sapiens, CCRF-CEM, 48 h, read-out: IC50 [µM] CCRF-CEM; for SI (selectivity index) CCRF-CEM: IC50 for Vero/IC50 for cancer cells
# Protocol: as §1, §2, §3
# MCF-7 cells = assay: cell cycle progression by flow cytometry, MCF-7; assay type: cell-based, human; details: 8 µM, 48 h; control 17%
# Protocol: Additionally, we observed the prolongation of G2/M in MCF-7 treated with 1 at the highest concentration. […] 1 induced G2/M phase arrest in MCF-7 with the highest effect detected for the 16 µM concentration, manifested as 32% cells in that stage, whereas in the control, the percentage of G2/M cells was 22%.
# (§4) CCRF-CEM and MCF-7 cells were cultured in 6-well plates and treated with the tested compounds for 48 h. After exposure to the compounds, the cells were collected, washed with cold PBS, and fixed in 70% ethanol at –20 °C for at least 24 h. Subsequently, the cells were washed in PBS and stained according to the procedure previously described by our group. The cellular DNA content was measured by flow cytometry using a BD Accuri C6 Plus flow cytometer (BD Biosciences, San Jose, CA, USA). The resulting DNA histograms were analyzed with BD Accuri C6 Plus software (San Diego, CA, USA) to assess the distribution of cells across different phases of the cell cycle.
# PIM-1 kinase = target: T1, PIM-1 kinase (Homo sapiens, UniProt P11309); assay: radiometric P81 filter isotopic kinase assay, PIM-1; assay type: biochemical; details: for remaining activity at 2 µM: cpd. concentration 2 μM; for remaining activity at 2 µM / remaining activity at 5 µM / remaining activity at 20 µM: read-out: PIM-1 Residual Activity [%]; for remaining activity at 5 µM: cpd. concentration 5 μM; for remaining activity at 20 µM: cpd. concentration 20 μM
# T1 construct: made in house
# Protocol: (§5) Synthetic peptide […] served as the substrate for CK2, while peptide […] was used as the substrate for PIM-1.
# (§6) The synthesized compounds were evaluated for their inhibitory activity against human CK2α, the human CK2 holoenzyme, and PIM-1 using the P81 filter-based isotopic assay, as previously described. […] The experimental data were fitted to a dose–response curve using non-linear regression analysis (variable slope) Y = Bottom + (Top − Bottom)/(1 + 10^((LogIC50 − X) × HillSlope) equation in GraphPad Prism (Prism 9, version 9.0.1).
# CCRF-CEM cells [7] = assay: cell cycle progression by flow cytometry, CCRF-CEM; assay type: cell-based, human; details: 16 µM, 48 h; control 33%
# Protocol: Since CK2 and PIM kinases regulate cell cycle progression, their inhibition may alter the distribution of cells across different cell cycle phases. […] For control cells, the percentage of G2/M cells was 17%. In addition to those changes, we observed cells in the sub-G1 phase, which are apoptotic cells. Accumulation of cells in this phase reflects DNA degradation characteristic of apoptotic cells. The largest percentage of these cells, i.e., 32% was determined in 16 µM 1-treated cells (Figure 6a,b).
# as §4
# CCRF-CEM cells [8] = assay: mitochondrial membrane potential (ΔΨm) JC-1 assay, CCRF-CEM; assay type: cell-based, human; details: 16 µM, 48 h
# Protocol: The mitochondrial membrane potential was evaluated by flow cytometry using 5,5′,6,6′-tetrachloro-1,1′,3,3′-tetraethylbenzimidazolocarbocyanine iodide (JC-1; Sigma-Aldrich), as previously described.
# [9] = system: hormone-sensitive human prostate cancer cell line LNCaP; parameters: method as in PMID 22698781; details: cited from earlier work
# [10] = target: T2, recombinant human CK2 catalytic subunit (rhCK2α) (Homo sapiens, UniProt P68400); assay: radiometric P81 filter isotopic kinase assay, CK2α; assay type: biochemical; details: for remaining activity at 2 µM: cpd. concentration 2 μM; for remaining activity at 2 µM / remaining activity at 5 µM / remaining activity at 20 µM: read-out: CK2α Residual Activity [%]; for remaining activity at 5 µM: cpd. concentration 5 μM; for remaining activity at 20 µM: cpd. concentration 20 μM
# T2 construct: made in house
# Protocol: as §5, §6
# T2 sequence (P68400 whole entry): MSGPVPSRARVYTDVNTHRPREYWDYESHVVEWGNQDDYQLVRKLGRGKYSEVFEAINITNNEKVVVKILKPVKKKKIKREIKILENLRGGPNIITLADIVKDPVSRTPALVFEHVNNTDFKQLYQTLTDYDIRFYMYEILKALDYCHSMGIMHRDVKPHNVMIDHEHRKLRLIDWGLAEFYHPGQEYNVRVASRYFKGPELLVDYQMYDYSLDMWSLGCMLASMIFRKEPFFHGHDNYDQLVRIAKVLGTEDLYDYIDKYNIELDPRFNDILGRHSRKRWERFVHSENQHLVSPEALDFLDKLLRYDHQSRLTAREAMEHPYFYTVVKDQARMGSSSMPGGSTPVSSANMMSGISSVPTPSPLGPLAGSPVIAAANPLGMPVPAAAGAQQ
# T1 sequence (P11309 whole entry): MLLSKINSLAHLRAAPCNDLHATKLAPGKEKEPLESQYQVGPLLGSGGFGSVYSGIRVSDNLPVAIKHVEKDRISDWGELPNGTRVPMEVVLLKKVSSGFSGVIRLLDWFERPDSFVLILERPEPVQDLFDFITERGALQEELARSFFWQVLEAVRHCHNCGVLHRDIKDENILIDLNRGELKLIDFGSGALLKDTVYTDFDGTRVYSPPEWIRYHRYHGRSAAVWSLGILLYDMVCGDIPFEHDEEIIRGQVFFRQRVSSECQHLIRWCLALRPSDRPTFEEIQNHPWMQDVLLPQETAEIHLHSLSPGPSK
smiles,measurement,setting,value
"CN(C)c1nc2c(Br)c(Br)c(Br)c(Br)c2[nH]1 [DMAT, 2-Dimethylamino-4,5,6,7-tetrabromo-1H-benzimidazole]",side effect on mitochondria polarization,[1],does not display any side effect on mitochondria polarization
same,DC50,Jurkat cells,2.7 µM
"OCC1OC(n2cnc3c(Br)c(Br)c(Br)c(Br)c32)CC1O [K164, 1-(β-D-2′-deoxyribofuranosyl)-4,5,6,7-tetrabromo-1H-benzimidazole]","apoptotic cells, LNCaP",LNCaP cell line,91.8%
"Brc1c(Br)c(Br)c2[nH]cnc2c1Br [TBBi, 4,5,6,7-tetrabromo-1H-benzimidazole, reference compound]",IC50,"[2]; MDA-MB-231, 48 h",29.7 ± 2.23 µM
same,IC50,"MCF-7 (breast carcinoma); MCF7, 48 h",12.6 ± 2.72 µM
same,apoptotic CCRF-CEM cells,CCRF-CEM cells [3]; 8 µM,16%
same,apoptotic CCRF-CEM cells,CCRF-CEM cells [3]; 16 µM,44%
same,apoptotic CCRF-CEM cells,CCRF-CEM cells [3]; 32 µM,95%
same,IC50,[4],24.8 ± 0.9 µM
same,p65-P-negative CCRF-CEM cells,[5],28%
same,IC50,[6],17.6 ± 0.67 µM
same,MCF-7 cells in the S phase,MCF-7 cells,12%
same,IC50,PIM-1 kinase,0.53 ± 0.04 µM
same,CCRF-CEM cells in the S phase,CCRF-CEM cells [7],19%
same,CCRF-CEM cells with reduced ΔΨm,CCRF-CEM cells [8],37%
same,LD50 against LNCaP,[9],≈ 20 µM
"Brc1c(Br)c(Br)c2[nH]nnc2c1Br [TBBt, 4,5,6,7-tetrabromo-1(2)H-benzotriazole]",DC50,Jurkat cells,17 µM
"Ic1c(I)c(I)c2[nH]cnc2c1I [TIBI, 4,5,6,7-tetraiodo-1H-benzimidazole]",LD50 against LNCaP,[9],≈ 20 µM
"CC(O)Cn1cnc2c(Br)c(Br)c(Br)c(Br)c21 (stereo not drawn) [compound 2, 1-(4,5,6,7-tetrabromo-1H-benzimidazol-1-yl)propan-2-ol]",IC50,"[2]; MDA-MB-231, MTT, 48 h",28.2 ± 3.27 µM
same,SI (selectivity index) MDA-MB-231,[2]; IC50 for Vero/IC50 for cancer cells,3.4
same,IC50,"MCF-7 (breast carcinoma); MCF7, MTT, 48 h",18.4 ± 0.41 µM
same,SI (selectivity index) MCF-7,MCF-7 (breast carcinoma),5.21
same,IC50,"[4]; MTT, non-cancerous cells",96.1 ± 4.76 µM
same,IC50,[10],11.1 ± 0.15 µM
same,remaining activity at 2 µM,[10],70.9 ± 0.9%
same,remaining activity at 5 µM,[10],41.8 ± 2.3%
same,remaining activity at 20 µM,[10],20.1 ± 1.2%
same,IC50,[6]; MTT,58.2 ± 5.86 µM
same,SI (selectivity index) CCRF-CEM,[6],1.65
same,IC50,PIM-1 kinase,2.41 ± 0.29 µM
same,remaining activity at 2 µM,PIM-1 kinase,58 ± 2.4%
same,remaining activity at 5 µM,PIM-1 kinase,26.4 ± 1.7%
same,remaining activity at 20 µM,PIM-1 kinase,9.3 ± 0.3%
"CC(=O)CCn1cnc2c(Br)c(Br)c(Br)c(Br)c21 [compound 3, 4-(4,5,6,7-Tetrabromo-1H-benzimidazol-1-yl)butan-2-one]",inhibition of CK2 kinase (in words),[10],inactive; also recorded: very weak
same,remaining activity at 2 µM,[10],102 ± 8.9%
same,remaining activity at 5 µM,[10],89.2 ± 8.6%
same,remaining activity at 20 µM,[10],82.8 ± 15.4%
same,inhibition of PIM-1 kinase (in words),PIM-1 kinase,inactive; also recorded: very weak
same,remaining activity at 2 µM,PIM-1 kinase,82.5 ± 4.2%
same,remaining activity at 5 µM,PIM-1 kinase,67.4 ± 0.7%
same,remaining activity at 20 µM,PIM-1 kinase,62.6 ± 0.8%
CC(O)CCn1cnc2c(Br)c(Br)c(Br)c(Br)c21 (stereo not drawn) [compound 4],IC50,"[2]; MDA-MB-231, MTT, 48 h",> 200 µM
same,IC50,"MCF-7 (breast carcinoma); MCF7, MTT, 48 h",41.9 ± 8.37 µM
same,SI (selectivity index) MCF-7,MCF-7 (breast carcinoma),3.15
same,IC50,"[4]; MTT, non-cancerous cells",132 ± 19.4 µM
same,remaining activity at 2 µM,[10],72.1 ± 3%
same,remaining activity at 5 µM,[10],21.3 ± 1.9%
same,remaining activity at 20 µM,[10],15.6 ± 0.3%
same,IC50,[6]; MTT,75.3 ± 10.3 µM
same,SI (selectivity index) CCRF-CEM,[6],1.75
same,IC50,PIM-1 kinase,3.08 ± 0.07 µM
same,remaining activity at 2 µM,PIM-1 kinase,66.9 ± 1.1%
same,remaining activity at 5 µM,PIM-1 kinase,29.1 ± 0.1%
same,remaining activity at 20 µM,PIM-1 kinase,21.4 ± 0.2%

# From article PMC12193579, “Pro-Apoptotic Activity of 1-(4,5,6,7-Tetrabromo-1H-benzimidazol-1-yl)propan-2-one, an Intracellular Inhibitor of PIM-1 Kinase in Acute Lymphoblastic Leukemia and Breast Cancer Cells” (International Journal of Molecular Sciences, 2025)
